US10828315B2 (Madrigal Pharmaceuticals, Inc., priority 2013, dated 2020)

Legend:
[1] = Mouse plasma stability protocol, up to 1 h (Examples 16-18)
HER2 = HER2 degradation assay with BT-474 cell line (Example 12, FACS); type: cell-based, human
[2] = % Remaining of parent after 1 h incubation in mouse plasma at 37° C. (10 μM)

CCc1c2c(nc3ccc(OC(=O)N4CCC(Cn5ccc6cc(-n7c(O)nnc7-c7cc(C(C)C)c(O)cc7O)ccc65)CC4)cc13)-c1cc3c(c(=O)n1C2)COC(=O)C3(O)CC (centres unmarked) [SDC-TRAP-0186, 4,11-diethyl-4-hydroxy-3,14-dioxo-3,4,12,14-tetrahydro-1H-pyrano[3′,4′:6,7]indolizino[1,2-b]quinolin-9-yl 4-((5-(3-(2,4-dihydroxy-5-isopropylphenyl)-5-hydroxy-4H-1,2,4-triazol-4-yl)-1H-indol-1-yl)methyl)piperidine-1-carboxylate]
% Remaining (1 h) [1, 2]: 57.9% | % Remaining (1 h) ([1]; mouse plasma, 37° C., 10 μM): 57.9% | % Remaining (1 h, 37° C.) ([1]; mouse plasma, 37° C.): 57.9% | IC50 (HER2): 1620 nM

CCNC(=O)c1nnc(-c2cc(C(C)C)c(O)cc2O)n1-c1ccc(OC2CCN(C(=O)Oc3c(C)cc(COC(=O)Nc4cccc5c4CN(C4CCC(=O)NC4=O)C5=O)cc3C)CC2)cc1 (centres unmarked) [SDC-TRAP-0187, 4-((((2-(2,6-dioxopiperidin-3-yl)-1-oxoisoindolin-4-yl)carbamoyl)oxy)methyl)-2,6-dimethylphenyl 4-(4-(3-(2,4-dihydroxy-5-isopropylphenyl)-5-(ethylcarbamoyl)-4H-1,2,4-triazol-4-yl)phenoxy)piperidine-1-carboxylate]
% Remaining (1 h) [1, 2]: 102% | IC50 (HER2): 72 nM

CCNC(=O)c1nnc(-c2cc(C(C)C)c(O)cc2O)n1-c1ccc(C(=O)N2CCN(C(=O)COC(=O)OC3(CC)C(=O)OCc4c3cc3n(c4=O)Cc4c-3nc3ccc(O)cc3c4CC)CC2)cc1 (centres unmarked) [SDC-TRAP-0202, 4,11-diethyl-9-hydroxy-3,14-dioxo-3,4,12,14-tetrahydro-1H-pyrano[3′,4′:6,7]indolizino[1,2-b]quinolin-4-yl (2-(4-(4-(3-(2,4-dihydroxy-5-isopropylphenyl)-5-(ethylcarbamoyl)-4H-1,2,4-triazol-4-yl)benzoyl)piperazin-1-yl)-2-oxoethyl) carbonate]
% Remaining (1 h) [1, 2]: 21.2% | % Remaining (1 h, 37° C.) ([1]; mouse plasma, 37° C.): 21.2% | IC50 (HER2): > 5000 nM

CCNC(=O)c1nnc(-c2cc(C(C)C)c(O)cc2O)n1-c1ccc(Oc2ccc(C(=O)N3CCC(OC(=O)OC4(CC)C(=O)OCc5c4cc4n(c5=O)Cc5c-4nc4ccc(O)cc4c5CC)CC3)cc2)cc1 (centres unmarked) [SDC-TRAP-0203, 4,11-Diethyl-9-hydroxy-3,14-dioxo-3,4,12,14-tetrahydro-1H-pyrano[3′,4′:6,7]indolizino[1,2-b]quinolin-4-yl (1-(4-(4-(3-(2,4-dihydroxy-5-isopropylphenyl)-5-(ethylcarbamoyl)-4H-1,2,4-triazol-4-yl)phenoxy)benzoyl)piperidin-4-yl) carbonate]
% Remaining (1 h, 37° C.) ([1]; mouse plasma, 37° C.): 71.2% | IC50 (HER2): 446 nM

CCNC(=O)c1nnc(-c2cc(C(C)C)c(O)cc2O)n1-c1ccc(OC2CCN(C(=O)CN(C)C(=O)Oc3ccc4nc5c(c(CC)c4c3)Cn3c-5cc4c(c3=O)COC(=O)[C@]4(O)CC)CC2)cc1 [SDC-TRAP-0206, (S)-4,11-diethyl-4-hydroxy-3,14-dioxo-3,4,12,14-tetrahydro-1H-pyrano[3′,4′:6,7]indolizino[1,2-b]quinolin-9-yl (2-(4-(4-(3-(2,4-dihydroxy-5-isopropylphenyl)-5-(ethylcarbamoyl)-4H-1,2,4-triazol-4-yl)phenoxy)piperidin-1-yl)-2-oxoethyl)(methyl)carbamate]
% Remaining (1 h) [1, 2]: 68.6% | % Remaining (1 h, 37° C.) ([1]; mouse plasma, 37° C.): 68.6% | IC50 (HER2): 321 nM

CCNC(=O)c1nnc(-c2cc(C(C)C)c(O)cc2O)n1-c1ccc(OC2CCN(C(=O)[C@@H]3CCCN3C(=O)Oc3ccc4nc5c(c(CC)c4c3)Cn3c-5cc4c(c3=O)COC(=O)[C@]4(O)CC)CC2)cc1 [SDC-TRAP-0209]
% Remaining (1 h) [1, 2]: 67.1% | % Remaining (1 h, 37° C.) ([1]; mouse plasma, 37° C.): 67.1% | IC50 (HER2): 1130 nM
